Data: patent publication US20230407243A1, “GENETIC PLATFORM TO INVESTIGATE THE FUNCTIONS OF BACTERIAL DRUG EFFLUX PUMPS” (priority 2022, published 2023)

Legend:
Type in all cases: cell-based, Escherichia coli
[1] = test system: EKO-35 araC::acrB; assay: MIC susceptibility profiling, efflux platform
Experimental: (§1) Single colonies were used to inoculate 3 mL of LB followed by incubation at 37° C. for 18 h with aeration at 220 rpm. The bacterial cells were harvested by centrifugation and resuspended in phosphate buffered saline (PBS) ([pH 7.4], 137 mM NaCl (Bioshop), 2.7 mM KCl (Bioshop), 10 mM Na2PO4 (Bioshop) and 1.8 mM K2PO4) to an OD600 nm˜1.0, followed by 1/2000 dilution into MHB II.
(§2) To a 384-well microtiter plate (Corning, untreated polystyrene), 500 nL of compound was dispensed, in duplicate, and serially titrated 2-fold using an Echo 550 acoustic liquid dispenser (Labcyte Inc.). […] As a solvent control, 500 nL of DMSO was applied to wells that contained no compound. Using a multichannel pipette, 50 μL of the prepared bacterial inoculum was applied to each well. To enable background correction post-incubation, the OD600 nm was measured (Biotek Synergy Neo2 microplate reader) prior to incubation. The plates were incubated at 37° C. with aeration at 900 rpm for 18 h. The plates were equilibrated to room temperature and the OD600 nm measured using a BioTek Synergy Neo2 microplate reader. Data was analyzed in both Prism (GraphPad, Version 9.2.0) and Microsoft Excel (Version 16.53). Raw data were input into Microsoft Excel and the pre-incubation OD600 nm measurements were subtracted from the post-incubation OD600 nm measurements. These corrected measurements were input into Prism 9 as a grouped analysis. […] All other MIC values were adjusted accordingly and visualized using the single-color scale grouped heat map function. Identification of compound chemical properties was achieved using DataWarrior (Version 5.5.0). Using PubChem, the SMILES chemical notation for each compound was obtained and compiled in Microsoft Excel. The resulting spreadsheet was input into DataWarrior and properties were calculated from the compound chemical structures.

[2] = test system: EKO-35 araC::emrKY; assay: MIC susceptibility profiling, efflux platform
Experimental: as §1, §2

[3] = test system: EKO-35 araC::acrBD408A; assay: MIC susceptibility profiling, efflux platform
Experimental: as §1, §2

[4] = test system: EKO-35 araC::mexCD (MexCD from P. aeruginosa); assay: MIC susceptibility profiling, efflux platform
Experimental: as §1, §2

[5] = test system: EKO-35 araC::mdtBC; assay: MIC susceptibility profiling, efflux platform
Experimental: as §1, §2

[6] = test system: EKO-35 araC::acrD; assay: MIC susceptibility profiling, efflux platform
Experimental: as §1, §2

[7] = test system: EKO-35 araC::acrEF; assay: MIC susceptibility profiling, efflux platform
Experimental: as §1, §2

[8] = test system: EKO-35 araC::macAB; assay: MIC susceptibility profiling, efflux platform
Experimental: as §1, §2

[9] = test system: EKO-35 araC::emrAB; assay: MIC susceptibility profiling, efflux platform
Experimental: as §1, §2

[10] = test system: EKO-35 araC::mdtEF; assay: MIC susceptibility profiling, efflux platform
Experimental: as §1, §2

[11] = test system: ΔtolC-Pore; assay: microbe, parasite or virus in culture; conditions: technical duplicate
Experimental: (§3) For genomic integration of the pore, the fhuA ΔC/Δ4L gene and the adjacent gentamicin resistance cassette were amplified using a high-fidelity polymerase and the fhuA_40_Up/gImS_3680_Low primers (Table 4). Integration of the pore gene was performed as described above. The pore gene was introduced into the intergenic region between the glmS and pstS genes, with gene expression under the control of a constitutive promoter (Kearse, M. et al., 2012). Genomic integrations were verified using PCR (Primers: pstS_520_Up/glmS_3680_Low, Table 4). Successful integrations were transformed with pCP20 to remove the gentamicin resistance cassette as previously described. Activity of the pore was confirmed through susceptibility testing with the large antibiotic vancomycin prior to phenotypic profiling and further susceptibility testing.
as §1, §2

[12] = test system: wild-type (WT) K-12-Pore; assay: microbe, parasite or virus in culture; conditions: technical duplicate
Experimental: as §3, §1, §2

[13] = test system: wild-type E. coli K-12 str. BW25113; assay: microbe, parasite or virus in culture; conditions: technical duplicate
Experimental: as §1, §2

[14] = test system: E. coli EKO-35; assay: microbe, parasite or virus in culture
Experimental: as §1, §2

[15] = test system: E. coli ΔtolC; assay: microbe, parasite or virus in culture; conditions: technical duplicate
Experimental: as §1, §2

[16] = test system: EKO-35 araC::acrBD408A Pore; assay: MIC susceptibility profiling, porinated efflux platform
Experimental: as §3, §1, §2

[17] = test system: EKO-35 araC::emrKY Pore; assay: as above
Experimental: as §3, §1, §2

[18] = test system: EKO-35 araC::acrD Pore; assay: as above
Experimental: as §3, §1, §2

[19] = test system: EKO-35-Pore; assay: MIC susceptibility profiling, porinated strain
Experimental: as §3, §1, §2

[20] = Table 13A, non-porinated, technical duplicate
[21] = Table 13B, non-porinated, technical duplicate
[22] = Table 14A, porinated, technical duplicate

With `C=C1CCO[C@]2([C@@H](O)[C@@](C)(O)CO)NC(=O)[C@@]1(O)NC2=O` [Bicyclomycin] the “Fold change of MICs” value ([1]; EKO-35 araC::acrB compared to EKO-35) was 1 fold, the “Minimum Inhibitory Concentration, EKO-35 araC::acrB” value [1, 20] was 200 µg/mL and the “Fold change of MICs” value ([2]; EKO-35 araC::emrKY compared to EKO-35) was 1 fold. The “Minimum Inhibitory Concentration, EKO-35 araC::emrKY” value [2, 21] was 200 µg/mL, the “Fold change of MICs” value ([3]; EKO-35 araC::acrBD408A compared to EKO-35) was 1 fold and the “Minimum Inhibitory Concentration, EKO-35 araC::acrBD408A” value [3, 21] was 200 µg/mL. For the same compound, the “Fold change of MICs” value ([4]; EKO-35 araC::mexCD compared to EKO-35) was 1 fold, the “Minimum Inhibitory Concentration, EKO-35 araC::mexCD” value [4, 21] was 200 µg/mL and the “Fold change of MICs” value ([5]; EKO-35 araC::mdtBC compared to EKO-35) was 1 fold. The “Minimum Inhibitory Concentration, EKO-35 araC::mdtBC” value [5, 21] was 200 µg/mL, the “Fold change of MICs” value ([6]; EKO-35 araC::acrD compared to EKO-35) was 1 fold and the “Minimum Inhibitory Concentration, EKO-35 araC::acrD” value [6, 20] was 200 µg/mL. For the same compound, the “Fold change of MICs” value ([7]; EKO-35 araC::acrEF compared to EKO-35) was 1 fold, the “Minimum Inhibitory Concentration, EKO-35 araC::acrEF” value [7, 20] was 200 µg/mL and the “Fold change of MICs” value ([8]; EKO-35 araC::macAB compared to EKO-35) was 1 fold. The “Minimum Inhibitory Concentration, EKO-35 araC::macAB” value [8, 21] was 200 µg/mL, the “Fold change of MICs” value ([9]; EKO-35 araC::emrAB compared to EKO-35) was 1 fold and the “Minimum Inhibitory Concentration, EKO-35 araC::emrAB” value [9, 21] was 200 µg/mL. The “Fold change of MICs” value ([10]; EKO-35 araC::mdtEF compared to EKO-35) was 1 fold, the “Minimum Inhibitory Concentration, EKO-35 araC::mdtEF” value [10, 20] was 200 µg/mL and the “Minimum inhibitory concentration (MIC), Pore ΔtolC” value ([11]; Table 10, with pore) was 200 µg/mL. For the same compound, the “Minimum inhibitory concentration, ΔtolC-Pore” value ([11]; Table 14A, porinated) was 200 µg/mL, the “Minimum inhibitory concentration (MIC), Pore K-12” value ([12]; Table 10, with pore) was 200 µg/mL and the “Minimum inhibitory concentration, K-12 (WT)-Pore” value ([12]; Table 14A, porinated) was 200 µg/mL. The “Minimum inhibitory concentration (MIC), K-12” value ([13]; Table 10, without pore) was 200 µg/mL, the “Minimum Inhibitory Concentration, K-12” value ([13]; Table 13A, non-porinated) was 200 µg/mL and the “Fold change of MICs” value ([14]; EKO-35 compared to EKO-35 (reference)) was 1 fold. For the same compound, the “Minimum inhibitory concentration (MIC), EKO-35” value ([14]; Table 10, without pore, technical duplicate) was 200 µg/mL, the “Minimum Inhibitory Concentration, EKO-35” value [14, 20] was 200 µg/mL and the “Minimum inhibitory concentration (MIC), ΔtolC” value ([15]; Table 10, without pore) was 200 µg/mL. The “Minimum Inhibitory Concentration, ΔtolC” value ([15]; Table 13A, non-porinated) was 200 µg/mL, the “Fold changes of MICs” value ([16]; EKO-35 araC::acrBD408A Pore compared to EKO-35-Pore) was 1 fold and the Minimum inhibitory concentration ([16]; EKO-35 araC::acrBD408A Pore, technical duplicate) was 200 µg/mL. For the same compound, the “Fold changes of MICs” value ([17]; EKO-35 araC::emrKY Pore compared to EKO-35-Pore) was 1 fold, the Minimum inhibitory concentration ([17]; EKO-35 araC::emrKY Pore, technical duplicate) was 200 µg/mL and the “Fold changes of MICs” value ([18]; EKO-35 araC::acrD Pore compared to EKO-35-Pore) was 1 fold. For the same compound, the “Minimum inhibitory concentration, EKO-35 araC::acrD Pore” value [18, 22] was 200 µg/mL, the “Fold changes of MICs” value ([19]; EKO-35-Pore compared to EKO-35-Pore (reference)) was 1 fold and the “Minimum inhibitory concentration (MIC), Pore EKO-35” value ([19]; Table 10, with pore, technical duplicate) was 200 µg/mL. The “Minimum inhibitory concentration, EKO-35-Pore” value [19, 22] was 200 µg/mL.
